The values that follow come from paper PMC7497692 (Investigational New Drugs, 2020).

A short description of series [1]: Oral PK of tepotinib and total radioactivity in plasma and blood (part A). The class given is in vivo, human healthy male volunteers. As to conditions: min–max, n=6. Here is the method: Participants were hospitalized from day 1 to day 16 of the study, and further assessed on days 19, 22, and 25 (trial end). […] Pre-dose feces and urine samples were collected on day 1 and day 2, respectively. Urine was collected at 4- to 12-h intervals on day 1 and every 24 h thereafter up to day 16. Feces were collected every 24 h up to day 16. Provision was made to collect further samples up to day 39 if >1% of the administered dose was detectable in the total (urine and feces) excreta per day on two consecutive measurements.
In brief, the isotopically labeled internal standard [^2H]-MSC2156119A was added to 20 μL K2-ethylenediaminetetraacetic acid (EDTA) plasma. […] Samples were centrifuged and 10 μL aliquots of the supernatant were injected onto an Acquity Charged Surface Hybrid™ (CSH) C18 column (2.1 × 50 mm; […]; Waters, Milford, Massachusetts, USA). Separation was carried out using a mobile phase gradient (eluent A: water/formic acid [100 + 1, v/v]; eluent B: acetonitrile/formic acid [100 + 1, v/v]) with a flow rate of 0.6 mL/min. […] The lower limit of quantification (LLOQ) was 5.00 ng/mL, and the calibration standard responses were linear over the range between 5.00 and 2500 ng/mL using a weighted (1/x^2) linear regression.
Total radioactivity in blood, plasma, urine, and feces samples, and quick counts in urine and feces samples were determined at the bioanalytical laboratory of PRA (Assen, The Netherlands) using liquid scintillation counting (LSC). Scintillation cocktail Ultima Gold™ (5 mL; Perkin Elmar, Waltham, Massachusetts, USA) was directly spiked into 250 μL plasma and 1000 μL urine samples, respectively, whereas 300 μL aliquots of blood samples were solubilized and decolorized before adding 18 mL of the scintillation cocktail prior to LSC. Feces samples were (quantitatively) homogenized with one or two weight equivalents of water, and an accurately weighted aliquot of approximately 500 mg of the homogenate was dried at 50 °C for at least 3 h. […]
The maximum plasma concentration (Cmax) and time to reach maximum concentration (tmax) were derived directly from the plasma concentration–time data. […] The area under the plasma concentration–time curve from 0 to t (last measurable concentration; AUC0–t) was calculated using a mixed log–linear trapezoidal method. […] Amounts excreted in urine, feces, and total (urine + feces) were calculated as the sum of amounts (concentration multiplied by volume) for each collection from time 0 to time t. […] Total body clearance (CL) and apparent body clearance (CL/f) were determined by dose/AUC0–∞, and total volume of distribution (Vz) and apparent volume of distribution (Vz/f) were calculated by dose/(AUC0–∞*λz) after IV and oral administration, respectively. […]

On the set-up of series [2]: method as in printed. As to conditions: preclinical results, bile-canaliculated rats, [14C]-tepotinib; ref not given; cited from earlier work.
Details of series [3]: method as in PMID 23553846. As to conditions: xenograft mice; cited from earlier work.
[4] abbreviates: tepotinib in plasma, median, single oral 498 mg capsules.

The term t½ denotes how long it takes for the measured level to halve. Regarding `CN1CCC(COc2cnc(-c3cccc(Cn4nc(-c5cccc(C#N)c5)ccc4=O)c3)nc2)CC1` [Tepotinib], the t½ in series [1] (tepotinib in plasma, geometric mean (geometric CV%), single oral 498 mg capsules) is 33 h. In addition, the tlag in series [1] (setting [4]) was determined as 2 h; in series [1] (total radioactivity in plasma, median, oral part A), 2.5 h. In addition, the tmax in series [1] (setting [4]) was found to be 9 h. Besides, in series [2], the “biliary excretion of radioactivity” value is “a predominant fraction of radioactivity is excreted unchanged via the bile”. For the same compound, the “tumor versus plasma concentration” value in series [3] is “higher concentrations in xenograft tumors than in the plasma of mice”.
